# Molecular target: T1, FLT3-D835Y mutant kinase (Homo sapiens, UniProt P36888, D835Y)
# T1 construct: purchased SignalChem
# T1 sequence (P36888 27-993 D835Y): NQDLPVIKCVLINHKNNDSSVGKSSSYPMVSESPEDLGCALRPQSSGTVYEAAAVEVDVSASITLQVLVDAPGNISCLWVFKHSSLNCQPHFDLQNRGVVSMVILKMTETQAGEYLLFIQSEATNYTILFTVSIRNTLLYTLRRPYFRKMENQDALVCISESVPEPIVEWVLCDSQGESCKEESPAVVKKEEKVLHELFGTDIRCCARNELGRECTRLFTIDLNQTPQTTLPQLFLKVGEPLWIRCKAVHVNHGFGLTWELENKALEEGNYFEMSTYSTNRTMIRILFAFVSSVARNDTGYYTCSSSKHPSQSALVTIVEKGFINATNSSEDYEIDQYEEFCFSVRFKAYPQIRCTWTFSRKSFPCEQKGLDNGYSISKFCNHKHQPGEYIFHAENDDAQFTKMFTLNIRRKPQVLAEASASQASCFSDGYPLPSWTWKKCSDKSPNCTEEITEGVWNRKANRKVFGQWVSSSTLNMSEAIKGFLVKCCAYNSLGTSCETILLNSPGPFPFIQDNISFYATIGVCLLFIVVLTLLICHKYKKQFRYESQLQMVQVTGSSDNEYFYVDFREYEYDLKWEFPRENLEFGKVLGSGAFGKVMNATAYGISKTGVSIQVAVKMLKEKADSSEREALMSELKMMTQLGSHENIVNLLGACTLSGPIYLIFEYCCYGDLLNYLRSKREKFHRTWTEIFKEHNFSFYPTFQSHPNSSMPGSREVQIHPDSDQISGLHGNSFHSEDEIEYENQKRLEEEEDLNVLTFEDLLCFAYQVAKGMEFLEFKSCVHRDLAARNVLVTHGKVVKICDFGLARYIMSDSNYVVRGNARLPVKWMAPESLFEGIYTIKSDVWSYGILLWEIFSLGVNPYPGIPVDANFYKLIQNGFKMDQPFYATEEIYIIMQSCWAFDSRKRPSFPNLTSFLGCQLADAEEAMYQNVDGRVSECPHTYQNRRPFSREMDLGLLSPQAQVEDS
# Assay: FLT3-D835Y mutant kinase assay (AlphaScreen)
# Type: biochemical
# Conditions: read-out: Ranking of IC50 values, FLT3-D835Y
# How it was run: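 Recombinant FLT3-D835Y (1 ng) phosphorylated biotin-poly(Glu4:Tyr1) at 10 μM ATP, pH 7.0 MOPS buffer with 10 mM MgCl2, for 30 min at 30 °C, stopped with EDTA. Product was read by AlphaScreen. IC50 came from serial dilutions run in duplicate.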
row,IC50,Structure (SMILES)
1,< 1 nM,"COc1cc(-c2cc3c(s2)Cc2c(-c4ccc5cnn(C)c5c4)n[nH]c2-3)ccc1CN1CCOCC1 [Compound 24, 4-(2-methoxy-4-(3-(1-methyl-1H-indazol-6-yl)-1,4-dihydrothieno[2′,3′:4,5]cyclopenta[1,2-c]pyrazol-6-yl)benzyl)morpholine]"
2,1 to 10 nM,"CC(C)Cn1ncc2ccc(-c3n[nH]c4c3Cc3sc(-c5ccc(CN6CCOCC6)cc5)cc3-4)cc21 [Compound 35, 4-(4-(3-(1-isobutyl-1H-indazol-6-yl)-1,4-dihydro-thieno[2′,3′:4,5]cyclopenta [1,2-c]pyrazol-6-yl)benzyl)morpholine]"
3,1 to 10 nM,"CCC(c1ccc(-c2cc3c(s2)Cc2c(-c4ccc5cnn(C)c5c4)n[nH]c2-3)cc1)N1CCOCC1 (centres unmarked) [Compound 28, 4-(1-(4-(3-(1-methyl-1H-indazol-6-yl)-1,4-dihydro-thieno[2′,3′:4,5]cyclopenta [1,2-c]pyrazol-6-yl)phenyl)propyl)morpholine]"
4,1 to 10 nM,"Cn1ncc2ccc(-c3n[nH]c4c3Cc3sc(-c5ccc(CN6CCCC6=O)cc5)cc3-4)cc21 [Compound 64, 1-(4-(3-(1-methyl-1H-indazol-6-yl)-1,4-dihydro-thieno[2′,3′:4,5]cyclopenta [1,2-c]pyrazol-6-yl)benzyl)pyrrolidin-2-one]"
5,1 to 10 nM,"CN(c1ccc(-c2cc3c(s2)Cc2c(-c4ccc5cnn(C)c5c4)n[nH]c2-3)cc1)C1CCOCC1 [Compound 73, N-methyl-N-(4-(3-(1-methyl-1H-indazol-6-yl)-1,4-dihydrothieno [2′,3′:4,5]cyclopenta [1,2-c]pyrazol-6-yl)phenyl)tetrahydro-2H-pyran-4-amine]"
6,1 to 10 nM,"Cc1cc(-c2cc3c(s2)Cc2c(-c4ccc5cnn(C)c5c4)n[nH]c2-3)ccc1CN1CCOCC1 [Compound 26, 4-(2-methyl-4-(3-(1-methyl-1H-indazol-6-yl)-1,4-dihydrothieno[2′,3′:4,5]cyclopenta[1,2-c]pyrazol-6-yl)benzyl)morpholine]"
7,< 1 nM,"Cn1ncc2ccc(-c3n[nH]c4c3Cc3sc(-c5ccc(CN6CCOCC6)cc5F)cc3-4)cc21 [Compound 32, 4-(3-fluoro-4-(3-(1-methyl-1H-indazol-6-yl)-1,4-dihydrothieno [2′,3′:4,5]cyclopenta [1,2-c]pyrazol-6-yl)benzyl)morpholine]"
8,< 1 nM,"CC1C(=O)N(C)CCN1Cc1ccc(-c2cc3c(s2)Cc2c(-c4ccc5cnn(C)c5c4)n[nH]c2-3)cc1 (centres unmarked) [Compound 65, 1,3-dimethyl-4-(4-(3-(1-methyl-1H-indazol-6-yl)-1,4-dihydrothieno [2′,3′:4,5]cyclopenta [1,2-c]pyrazol-6-yl)benzyl)piperazin-2-one]"
9,< 1 nM,"CN(C)C(=O)c1ccc(-c2cc3c(s2)Cc2c(-c4ccc5cnn(C)c5c4)n[nH]c2-3)cc1 [Compound 49, N,N-dimethyl-4-(3-(1-methyl-1H-indazol-6-yl)-1,4-dihydrothieno [2′,3′:4,5]cyclopenta [1,2-c]pyrazol-6-yl) benzamide]"
10,< 1 nM,"Cn1ncc2ccc(-c3n[nH]c4c3Cc3sc(-c5ccc(CN6CCOCC6=O)cc5)cc3-4)cc21 [Compound 59, 4-(4-(3-(1-methyl-1H-indazol-6-yl)-1,4-dihydro-thieno[2′,3′:4,5]cyclopenta [1,2-c]pyrazol-6-yl)benzyl)morpholin-3-one]"
11,1 to 10 nM,"Cn1ncc2ccc(-c3n[nH]c4c3Cc3sc(-c5ccc(C(=O)N6CCCCC6)cc5)cc3-4)cc21 [Compound 34, (4-(3-(1-methyl-1H-indazol-6-yl)-1,4-dihydro-thieno[2′,3′:4,5]cyclopenta [1,2-c]pyrazol-6-yl)phenyl)(piperidin-1-yl) methanone]"
12,1 to 10 nM,"Cn1ncc2ccc(-c3n[nH]c4c3Cc3sc(-c5ccc(C=C6CCOCC6)cc5)cc3-4)cc21 [Compound 76, 3-(1-methyl-1H-indazol-6-yl)-6-(4-((tetrahydro-4H-pyran-4-ylidene)methyl)phenyl)-1,4-dihydrothieno[2′,3′:4,5] cyclopenta[1,2-c]pyrazole]"
13,< 1 nM,"C[C@H]1COCCN1Cc1ccc(-c2cc3c(s2)Cc2c(-c4ccc5cnn(C)c5c4)n[nH]c2-3)cc1 [Compound 75, (S)-3-methyl-4-(4-(3-(1-methyl-1H-indazol-6-yl)-1,4-dihydrothieno [2′,3′:4,5]cyclopenta [1,2-c]pyrazol-6-yl)benzyl)morpholine]"
14,< 1 nM,"Cn1ncc2ccc(-c3n[nH]c4c3Cc3sc(-c5ccc(CN6CC7(COC7)C6)cc5)cc3-4)cc21 [Compound 102, 6-(4-(3-(1-methyl-1H-indazol-6-yl)-1,4-dihydro-thieno[2′,3′:4,5]cyclopenta [1,2-c]pyrazol-6-yl)benzyl)-2-oxa-6-azaspiro [3.3]heptane]"
15,1 to 10 nM,"Cn1ncc2ccc(-c3n[nH]c4c3Cc3sc(-c5ccc(CN6CCC(F)(F)C6)cc5)cc3-4)cc21 [Compound 67, 6-(4-((3,3-difluoro-pyrrolidin-1-yl)methyl)phenyl)-3-(1-methyl-1H-indazol-6-yl)-1,4-dihydro-thieno[2′,3′:4,5]cyclopenta [1,2-c]pyrazole]"

# Second part, the molecule before the results:
row,Structure (SMILES),IC50
1,"Cc1cc(-c2cc3c(s2)Cc2c(-c4ccc5cnn(C)c5c4)n[nH]c2-3)ccn1 [Compound 17, 3-(1-methyl-1H-indazol-6-yl)-6-(2-methylpyridin-4-yl)-1,4-dihydrothieno [2′,3′:4,5]cyclopenta[1,2-c] pyrazole]",1 to 10 nM
2,"Cc1ccc(-c2cc3c(s2)Cc2c(-c4ccc5cnn(C)c5c4)n[nH]c2-3)cn1 [Compound 33, 3-(1-methyl-1H-indazol-6-yl)-6-(6-methylpyridin-3-yl)-1,4-dihydrothieno [2′,3′:4,5]cyclopenta [1,2-c]pyrazole]",< 1 nM
3,"COc1cc(-c2cc3c(s2)Cc2c(-c4ccc5cnn(C)c5c4)n[nH]c2-3)ccc1C(=O)N1CCOCC1 [Compound 43, (2-methoxy-4-(3-(1-methyl-1H-indazol-6-yl)-1,4-dihydrothieno [2′,3′:4,5]cyclopenta [1,2-c]pyrazol-6-yl)phenyl)(morpholino) methanone]",1 to 10 nM
4,"C[C@@H]1CN(Cc2cccc(-c3cc4c(s3)Cc3c(-c5ccc6cnn(C)c6c5)n[nH]c3-4)c2)C[C@H](C)O1 [Compound 12, (2S,6R)-2,6-dimethyl-4-(3-(3-(1-methyl-1H-indazol-6-yl)-1,4-dihydrothieno [2′,3′:4,5]cyclopenta[1,2-c]pyrazol-6-yl)benzyl) morpholine]",1 to 10 nM
5,"Cn1ncc2ccc(-c3n[nH]c4c3Cc3sc(C5CCN(C(=O)OC(C)(C)C)CC5)cc3-4)cc21 [Compound 58, tert-butyl-4-(3-(1-methyl-1H-indazol-6-yl)-1,4-dihydrothieno[2′,3′:4,5]cyclopenta[1,2-c]pyrazol-6-yl)piperidine-1-carboxylate]",1 to 10 nM
6,"Cn1ncc2ccc(-c3n[nH]c4c3Cc3sc(-c5csc(C(=O)N6CCOCC6)n5)cc3-4)cc21 [Compound 60, (4-(3-(1-methyl-1H-indazol-6-yl)-1,4-dihydro-thieno[2′,3′:4,5]cyclopenta [1,2-c]pyrazol-6-yl)thiazol-2-yl)(morpholino) methanone]",< 1 nM
7,"Cn1ncc2ccc(-c3n[nH]c4c3Cc3sc(-c5ccc(CN6CCOCC6)c(C(F)(F)F)c5)cc3-4)cc21 [Compound 27, 4-(4-(3-(1-methyl-1H-indazol-6-yl)-1,4-dihydrothieno[2′,3′:4,5]cyclopenta[1,2-c]pyrazol-6-yl)-2-(trifluoromethyl)benzyl)morpholine]",1 to 10 nM
8,"Cn1ncc2ccc(-c3n[nH]c4c3Cc3sc(N5CCOCC5=O)cc3-4)cc21 [Compound 79, 4-(3-(1-methyl-1H-indazol-6-yl)-1,4-dihydro-thieno[2′,3′:4,5]cyclopenta [1,2-c]pyrazol-6-yl) morpholin-3-one]",< 1 nM
9,"Cn1ncc2ccc(-c3n[nH]c4c3Cc3sc(-c5ccc(C(=O)N6CCOCC6)nc5)cc3-4)cc21 [Compound 23, (5-(3-(1-methyl-1H-indazol-6-yl)-1,4-dihydro-thieno[2′,3′:4,5]cyclopenta [1,2-c]pyrazol-6-yl)pyridin-2-yl)(morpholino) methanone]",< 1 nM
10,"Cc1ccc(-c2cc3c(s2)Cc2c(-c4ccc5cnn(C)c5c4)n[nH]c2-3)cn1 [Compound 11, 3-(1-methyl-1H-indazol-6-yl)-6-(6-methylpyridin-3-yl)-1,4-dihydrothieno [2′,3′:4,5]cyclopenta[1,2-c] pyrazole]",< 1 nM
11,"Cn1ncc2ccc(-c3n[nH]c4c3Cc3sc(-c5ccc(C(=O)N6CCOCC6)c(F)c5)cc3-4)cc21 [Compound 44, (2-fluoro-4-(3-(1-methyl-1H-indazol-6-yl)-1,4-dihydrothieno[2′,3′:4,5]cyclopenta[1,2-c]pyrazol-6-yl)phenyl)(morpholino) methanone]",< 1 nM

# — patent US12448394B2, “Heterocyclic pyrazole derivatives as type III receptor tyrosine kinase inhibitors” (DEVELOPMENT CENTER FOR BIOTECHNOLOGY, priority 2019, dated 2025)
